Source: patent US20080208179A1, “METHODS OF INCREASING SKIN PERMEABILITY BY TREATMENT WITH ELECTROMAGNETIC RADIATION” (Reliant Technologies, Inc., priority 2006, published 2008)
One block for each compound: values may come before it.

Tests used:
Format in all cases: in vitro ADME
[1] = In vitro permeation of 5-Fluorouracil through fractional laser treated ex vivo human skin (Example 8)
Protocol: In vitro permeation studies were performed on untreated and treated ex vivo human skin to determine if treatment of the skin with fractional laser radiation increased skin permeability to a 0.5% (w/v) 5-Fluorourocil solution. The treatment was conducted using the methods outlined in Examples 6 and 7 using a Fraxel Re:store™ laser system (Reliant Technologies, Mountain View, Calif., USA). The treatment parameters used included a laser pulse energy of 10 mJ, a 60 μm incident optical spot size, and a final spot density of 2000 MTZ/cm^2. The skin graft thickness used was 500 μm. The experiment consisted of a total of 6 individual runs (n=6). The uptake study was conducted using an infinite dose regimen.
The total uptake was taken as the sum of the permeated and retained 5-Fluorouracil. The permeation values were calculated at each time point and plotted as a cumulative value in FIG. 16. Over the course of the study (24 hours), the uptake of 5-Fluorouracil from the untreated skin (control) remained below 0.2 mg/cm^2, while the uptake of 5-Fluorouracil from the laser treated skin approached 1.4 mg/cm^2 after 24 hours.

[2] = In vitro permeation of ascorbic acid through fractional laser treated ex vivo human skin (Example 6, 60 μm treatment zone size); settings: for Retention Ratio / Total Uptake Ratio: delivery mode not given; for Cumulative permeation / Enhancement ratio (total uptake by treatment/total uptake in control) / Retention / Total uptake: 90 min
Protocol: In vitro permeation studies were performed on untreated and treated human skin to determine if treatment of the skin with fractional laser radiation increased skin permeability to ascorbic acid. The treatment consisted of exposing the skin in vitro to fractional laser radiation. This study also evaluated the effect of using the laser radiation using the contact delivery mode and the non-contact delivery mode.
Ex vivo skin: All ex vivo laser treatments were performed using a 1550 nm laser system on freshly excised human abdominal skin (Fitzpatrick skin type II).
Laser parameters: Arrays of single mode Gaussian beams of 60 μm 1/e^2 diameter at incidence were delivered to the surface of the skin specimen in each treatment, using contact and non-contact tips. For the contact delivery mode, the laser radiation was delivered through a sapphire window in a contact tip which abutted the specimen. For the non-contact delivery mode, the laser radiation was delivered through a contact tip without the sapphire window; thus, the laser incidence occurred at the air-tissue interface. The laser pulse energies tested for ascorbic acid uptake measurements were 10 and 20 mJ. […]
Ascorbic acid formulation: Topical vitamin C solution contained L-ascorbic acid 15% (VWR International, West Chester, Pa.), ferulic acid 0.5%, and vitamin E 1% buffered to a pH of 3.2±0.2 with triethanolamine (Lin et al, 2005). Ascorbic acid was freshly prepared avoiding light exposure just prior to each experiment.
(§1) Ascorbic acid permeation studies: The uptake studies were carried out using skin permeation systems (LGA, Inc., Berkeley, Calif.) and 500 μm thick skin grafts from freshly excised human abdominal skin. Non-laser treated skin was used as a control. Immediately after laser treatment, each skin sample was mounted on a permeation system whose donor compartment was then filled with ascorbic acid solution (Lee et al, 2003). The entire arrangement was incubated to simulate body temperature. Aliquots were drawn at 5, 10, 15, 30, 60, and 90 min, and quantitatively analyzed for permeated ascorbic acid using high performance liquid chromatography (HPLC). After 90 min, each skin sample was washed thoroughly in saline, weighed, homogenized and centrifuged (Lee et al, 2003). This was followed by HPLC analysis to determine the retained ascorbic acid value. The measured retention was then normalized to the effective area of skin sample through which permeation occurred. Each experiment constituted a total of 5 individual runs (n=5).
(§2) Data analysis: The total uptake was taken as the sum of the permeated and retained ascorbic acid. The permeation values were calculated at each time point and plotted as a cumulative value. The uptake enhancement ratio represents the total ascorbic acid uptake for laser treated skin divided by the total uptake for untreated skin at 90 min.

[3] = In vitro permeation of ascorbic acid through fractional laser treated ex vivo human skin (Example 7, 85 μm spot size); settings: for Cumulative permeation / Enhancement ratio (total uptake in treated sample/total uptake in control) / Retention / Total uptake: 90 min; for Normalized cumulative permeation at 10 mJ @ 2000 MTZ/cm2 relative to 20 mJ @ 1000 MTZ/cm2: by 90 min
Protocol: In vitro permeation studies were performed on untreated and treated human skin to determine if treatment of the skin with fractional laser radiation increased skin permeability to ascorbic acid.
A modified 1550 nm Fraxel® SR laser system was operated as previously described by Bedi et al., Lasers Surg Med, 2007 February; 39(2):145-55. Arrays of single mode Gaussian beams of 85 μm 1/e^2 diameter at incidence were delivered to the surface of the skin specimen in each treatment, using contact and non-contact tips. The contact tip abutted the specimen through a sapphire window through which the laser beam was irradiated. The non-contact tip omitted the sapphire window; thus, the laser incidence occurred at the air-tissue interface. The laser pulse energies tested for ascorbic acid uptake measurements were 10 and 20 mJ. For each 10 mJ treatment, 8 passes at 250 microscopic treatment zones (MTZs) per cm^2 were made at a constant velocity of 1.0 cm per second producing a final spot density of 2000 MTZs per cm^2; for each 20 mJ treatment, 4 passes at 250 microscopic treatment zones (MTZs) per cm^2 were made at a constant velocity of 1.0 cm per second producing a final spot density of 1000 MTZs per cm^2. These pulse energy and spot density combination parameters are similar to those used in a typical clinical NFR™ treatment session. Histologic examination was performed for pulse energies ranging from 6 to 40 mJ at a fixed spot size of 85 μm. The pulse durations ranged from 0.24 to 1.6 msec per pulse.
Topical vitamin C solution contained L-ascorbic acid 15% (VWR International, West Chester, Pa.), ferulic acid 0.5%, and vitamin E 1% buffered to a pH of 3.2±0.2 with triethanolamine (Lin et al, 2005). Ascorbic acid was freshly prepared avoiding light exposure just prior to each experiment.
as §1, with “The uptake” for “Ascorbic acid permeation studies: The uptake”, “and 90 min from the diffusion chamber, and quantitatively” for “and 90 min, and quantitatively”
as §2, with “The” for “Data analysis: The”, “acid over the cross-sectional area of the skin through which uptake occurred.” for “acid.”

[4] = 10 mJ, 60 μm spot size, 2000 MTZ/cm2, 0.5% (w/v) solution, n=6
[5] = 20 mJ, 1000 TZ/cm2, contact mode
[6] = 20 mJ, 1000 TZ/cm2, non-contact mode
[7] = 1550 nm, 60 μm, 20 mJ, contact mode, 1000 TZ/cm2
[8] = 1550 nm, 60 μm, 20 mJ, non-contact mode, 1000 TZ/cm2
[9] = control, non-laser treated skin
[10] = skin group not stated (sentence follows the control value)
[11] = 1550 nm, 85 μm, 10 mJ, contact mode, 2000 MTZ/cm2
[12] = 1550 nm, 85 μm, 20 mJ, contact mode, 1000 MTZ/cm2
[13] = 1550 nm, 85 μm, 20 mJ, non-contact mode, 1000 MTZ/cm2
[14] = 1550 nm, 85 μm, non-contact mode, pulse energy 20 mJ, text b229 prints 10 mJ @ 2000 MTZ/cm2

- Permeation, Ratio ± Standard Deviation [1, 4]: 37.7 ± 10.6
- Retention, Ratio ± Standard Deviation [1, 4]: 2.4 ± 0.8
- Uptake, Ratio ± Standard Deviation [1, 4]: 20.3 ± 5.3
- Uptake ([1]; laser treated skin, 10 mJ, 60 μm, 2000 MTZ/cm2, after 24 hours): ~1.4 mg/cm^2
- Uptake ([1]; untreated skin (control), over 24 hours): below 0.2 mg/cm^2
SMILES: O=c1[nH]cc(F)c(=O)[nH]1 [5-Fluorouracil]

- Retention Ratio ([2]; 10 mJ, 1000 TZ/cm2): 1.8
- Total Uptake Ratio ([2]; 10 mJ, 1000 TZ/cm2): 2.9
- Retention Ratio ([2]; 10 mJ, 2000 TZ/cm2): 2.0
- Total Uptake Ratio ([2]; 10 mJ, 2000 TZ/cm2): 4.2
- Retention Ratio ([2]; 20 mJ, 500 TZ/cm2): 1.3
- Total Uptake Ratio ([2]; 20 mJ, 500 TZ/cm2): 7.0
- Retention Ratio (retained by treated skin / retained by control skin) [2, 5]: 2.1
- Total Uptake Ratio (treated skin / control skin) [2, 5]: 5.3
- Retention Ratio (retained by treated skin / retained by control skin) [2, 6]: 3.8
- Total Uptake Ratio (treated skin / control skin) [2, 6]: 9.6
- Retention Ratio ([2]; 20 mJ, 1000 TZ/cm2): 3.8
- Total Uptake Ratio ([2]; 20 mJ, 1000 TZ/cm2): 9.6
- Cumulative permeation over time, non-contact mode compared with contact mode ([2]; 20 mJ, FIG. 12): higher permeation levels
- Cumulative permeation [2, 7]: 0.20 ± 0.03 mg
- Enhancement ratio (total uptake by treatment/total uptake in control) [2, 7]: 5.3
- Retention [2, 7]: 0.13 ± 0.01 mg
- Total uptake [2, 7]: 0.42 ± 0.06 mg/cm2
- Cumulative permeation [2, 8]: 0.37 ± 0.14 mg
- Enhancement ratio (total uptake by treatment/total uptake in control) [2, 8]: 9.6
- Retention [2, 8]: 0.24 ± 0.03 mg
- Total uptake [2, 8]: 0.77 ± 0.18 mg/cm2
- Cumulative permeation [2, 9]: below
- Retention [2, 9]: 0.06 ± 0.01 mg
- Total uptake [2, 9]: 0.08 ± 0.01 mg/cm2
- Share of the total uptake contributed by permeation [2, 10]: ~70%
- Share of the total uptake contributed by retention [2, 10]: Approximately 30%
- Improvement of uptake in non-contact mode over contact mode at identical laser parameters ([3]; 10 mJ @ 2000 MTZ/cm2): ~4 ×
- Improvement of uptake in non-contact mode over contact mode at identical laser parameters ([3]; 20 mJ @ 1000 MTZ/cm2): ~3 ×
- Cumulative permeation [3, 11]: 0.49 ± 0.07 mg
- Enhancement ratio (total uptake in treated sample/total uptake in control) [3, 11]: 6.6
- Retention [3, 11]: 0.22 ± 0.02 mg
- Total uptake [3, 11]: 0.90±0.07 mg/cm2
- Cumulative permeation [3, 12]: 0.27 ± 0.10 mg
- Enhancement ratio (total uptake in treated sample/total uptake in control) [3, 12]: 3.6
- Retention [3, 12]: 0.12 ± 0.02 mg
- Total uptake [3, 12]: 0.49±0.14 mg/cm2
- Cumulative permeation [3, 13]: 0.90 ± 0.27 mg
- Enhancement ratio (total uptake in treated sample/total uptake in control) [3, 13]: 10.3
- Retention [3, 13]: 0.19 ± 0.02 mg
- Total uptake [3, 13]: 1.40±0.31 mg/cm2
- Cumulative permeation ([3]; 1550 nm, 85 μm, non-contact mode, pulse energy 20 mJ, text b227 prints 10 mJ @ 2000 MTZ/cm2): 2.41 ± 0.44 mg
- Retention ([3]; 1550 nm, 85 μm, non-contact mode, pulse energy 20 mJ, text b228 prints 10 mJ @ 2000 MTZ/cm2): 0.40 ± 0.09 mg
- Enhancement ratio (total uptake in treated sample/total uptake in control) [3, 14]: 26.3
- Total uptake [3, 14]: 3.58±0.54 mg/cm2
- Normalized cumulative permeation at 10 mJ @ 2000 MTZ/cm2 relative to 20 mJ @ 1000 MTZ/cm2 ([3]; contact mode): approximately 2 ×
- Total uptake at 2000 MTZ/cm2 relative to 1000 MTZ/cm2 within the respective treatment mode ([3]; contact or non-contact, regardless of pulse energy (10 mJ or 20 mJ)): approximately two or more times
- Retention [3, 9]: 0.11 ± 0.01 mg
- Total uptake [3, 9]: 0.14±0.01 mg/cm2
- Normalized cumulative permeation at 10 mJ @ 2000 MTZ/cm2 relative to 20 mJ @ 1000 MTZ/cm2 ([3]; non-contact mode): more than twice
- Permeation measured by HPLC ([3]; non-irradiated ex vivo skin, up to 90 min after application): no permeation
- Time until permeation was demonstrated ([3]; skin treated at pulse energies of 10 mJ and 20 mJ, contact mode, FIG. 13): ≤ 5 min
SMILES: O=C1O[C@H]([C@@H](O)CO)C(O)=C1O [ascorbic acid, L-ascorbic acid]
- Permeation into the diffusion chamber ([3]; all conditions of laser treatment tested): observed to permeate into the diffusion chamber
